Experimental findings from US8940798B2, “Compounds useful for treating and/or preventing disease-associated bone loss” (Centre National de al Recherche Scientifique (CNRS), priority 2011, dated 2015) are described below.

The structures appear in SMILES notation.

This assay concerns DBA1 mice. Description: Arthritis model induced by injecting bovine collagen into DBA1 mice. It is filed as in vivo, mouse. On the procedure: In inflammatory arthritis pathologies such as rheumatoid polyarthritis, the inflammatory reaction in the synovial tissue causes differentiation of osteoclasts that destroy the bone in the area of the joints (see FIG. 8). The arthritis model induced by injecting bovine collagen into DBA1 mice is classically used as a model for this pathology.
Protocol experiment 1: 2 naive DBA1 mice, 6 control mice injected with PBS and 8 test mice receiving the compound C21, 5 mg/d/kg, 5 days per week, as a retro-orbital sinus injection. The mice are distributed in 2 cages, with 1 naive mouse, 3 control mice and 4 test mice per cage. The animals, with the exception of the naive mice, receive an injection of […] of bovine collagen at day 0 and at day 20.
Protocol experiment 2: 4 naive DBA1 mice, 12 control mice injected with PBS and 12 test mice receiving the compound C21, 15 mg/d/kg, 5 days per week, as an intraperitoneal injection. The mice are distributed in 2 cages, with 2 naive mice, 6 control mice and 6 test mice per cage. The animals, with the exception of the naive mice, receive an injection of 100 μg of bovine collagen at day 0 and at day 20.
The arthritic score of each mouse is established twice per week between days 20 and D52, in order to measure swelling and deformation of the joints of the four limbs, an indication of the inflammatory response. The mice are sacrificed at D53, the legs are dissected and the structure of the bone surface of the metatarsi is imaged by micro-tomography in order to show the bone degradation at the area of the joints. The bone volume with respect to the total volume of the joint (BV/TV) decreases with the formation of resorption cavities. The measurements were performed on the joint of the central finger of the right metatarsus in experiment 1 and from the left and the right metatarsus in experiment 2. Anti-collagen IgG levels were measured in the serum of the mice in experiment 2 at day 52.

`O=S(=O)(Nc1cc(Cl)cc(Cl)c1)c1ccccc1` [C21, N-(3,5-dichlorophenyl)benzenesulfonamide]: the “Correlation between the arthritic score and BV/TV” value (experiment 1, 5 mg/d/kg) is given as “no correlation”. Moreover, the “Mean arthritic score on D52” value (experiment 1, 5 mg/d/kg, 5 days per week, retro-orbital sinus injection) is 3.78±1.23. Besides, under “experiment 1, 5 mg/d/kg, BV/TV relative to arthritic score”, the “Bone mass regardless of arthritic score” value is “maintenance of their bone mass”. Besides, under “experiment 1, 5 mg/d/kg, metatarsus joint, D53”, the “Bone mass (BV/TV) by micro-tomography by comparison with the naive mice” value is reported as “did not have any BV/TV modification”. Moreover, the “Number of mice of the 8 showing moderate bone degradation” value (experiment 1, 5 mg/d/kg, three-dimensional reconstruction of first joint of metatarsus) is reported as 1. For the same compound, for the setting “experiment 2, 15 mg/d/kg intraperitoneal”, the “Correlation between the BV/TV and the arthritic score” value was “no correlation”. Besides, the “Levels of anti-collagen IgGs compared with PBS mice” value (experiment 2, 15 mg/d/kg intraperitoneal, serum at day 52) is recorded as “non-significantly different”.
